Patent US10385052B2, “Tricyclic compound and JAK inhibitor” (NISSAN CHEMICAL CORPORATION, priority 2014, dated 2019)

Key:
[1] = system: cytokine signaling via JAK; assay: Signal assay in human whole blood (STAT phosphorylation assay); format: cell-based; conditions: T-cell, human IL-6 100 ng/mL, phosphated STAT-1 in CD3 positive T cells
Experimental: 3. Signal Assay in Human Whole Blood
The inhibitory activities of the compounds of the present invention obtained in Synthetic Examples 3 to 7 against cytokine signaling via JAK were measured by STAT phosphorylation assay using human whole blood.
Human whole blood was collected from healthy humans.
Human IL-6 was purchased from R&D systems.
Each compound was used at six concentrations of 3 μM, 1.5 μM, 0.75 μM, 0.38 μM, 0.19 μM and 0.093 μM, at six concentrations of 2 μM, 1 μM, 0.5 μM, 0.25 μM, 0.13 μM and 0.063 μM, or at six concentrations of 10 μM, 5 μM, 2.5 μM, 1.25 μM, 0.63 μM and 0.31 μM.
The concentration of human IL-6 was 100 ng/mL.
(§1) Human blood and a compound were put into each Costar assay block tube and incubated at 37° C. for 30 minutes, then incubated with human IL-6 at 37° C. for 15 minutes and incubated with 10 times as much of BD Phosflow Lyse/Fix Buffer as the blood at 37° C. for 12 minutes. Centrifugal separation was carried out at 5,884 m/s^2 for 6 minutes with a centrifugal separator to precipitate the cells, and the supernatants were removed.
(§2) The cell pellets were washed with 1 mL of phosphate buffered saline (PBS), then incubated with 0.6 mL of BD Phosflow Perm Buffer III on ice for 30 minutes and centrifuged at 5,884 m/s^2 for 6 minutes by means of a centrifugal separator to precipitate the cells, and the supernatants were removed.
(§3) The cell pellets were washed with 0.3 mL of BD Pharmingen Stain Buffer and incubated with 0.1 mL of BD Pharmingen Stain Buffer, 10 μL of BD Phosflow STAT-1 and 5 μL of FITC-hCD3 at room temperature for 30 minutes. After addition of 0.1 mL of BD Pharmingen Stain Buffer, the cells were centrifuged at 5,884 m/s^2 for 6 minutes by means of a centrifugal separator to precipitate the cells, and the supernatants were removed.
(§4) The cell pellets were washed with 0.3 mL of BD Pharmingen Stain Buffer, and 0.12 mL of BD Pharmingen Stain Buffer was added. The cytokine signaling inhibition was measured with FACS Cantoll (manufactured by BD) by detecting FITC-labeled CD3 positive T cells and detecting the amount of phosphated STAT-1 protein in the cells as the PE fluorescence. From the plot of the logarithm of a compound concentration and inhibitory activity, the IC50 value was calculated.

Tyk2 = Tyk2 (Homo sapiens (Human), UniProt P29597); assay: Tyk2 enzyme assay; format: biochemical; conditions: enzyme 0.25 μg/mL, ATP 20 μM
Tyk2, sequence (P29597 whole entry): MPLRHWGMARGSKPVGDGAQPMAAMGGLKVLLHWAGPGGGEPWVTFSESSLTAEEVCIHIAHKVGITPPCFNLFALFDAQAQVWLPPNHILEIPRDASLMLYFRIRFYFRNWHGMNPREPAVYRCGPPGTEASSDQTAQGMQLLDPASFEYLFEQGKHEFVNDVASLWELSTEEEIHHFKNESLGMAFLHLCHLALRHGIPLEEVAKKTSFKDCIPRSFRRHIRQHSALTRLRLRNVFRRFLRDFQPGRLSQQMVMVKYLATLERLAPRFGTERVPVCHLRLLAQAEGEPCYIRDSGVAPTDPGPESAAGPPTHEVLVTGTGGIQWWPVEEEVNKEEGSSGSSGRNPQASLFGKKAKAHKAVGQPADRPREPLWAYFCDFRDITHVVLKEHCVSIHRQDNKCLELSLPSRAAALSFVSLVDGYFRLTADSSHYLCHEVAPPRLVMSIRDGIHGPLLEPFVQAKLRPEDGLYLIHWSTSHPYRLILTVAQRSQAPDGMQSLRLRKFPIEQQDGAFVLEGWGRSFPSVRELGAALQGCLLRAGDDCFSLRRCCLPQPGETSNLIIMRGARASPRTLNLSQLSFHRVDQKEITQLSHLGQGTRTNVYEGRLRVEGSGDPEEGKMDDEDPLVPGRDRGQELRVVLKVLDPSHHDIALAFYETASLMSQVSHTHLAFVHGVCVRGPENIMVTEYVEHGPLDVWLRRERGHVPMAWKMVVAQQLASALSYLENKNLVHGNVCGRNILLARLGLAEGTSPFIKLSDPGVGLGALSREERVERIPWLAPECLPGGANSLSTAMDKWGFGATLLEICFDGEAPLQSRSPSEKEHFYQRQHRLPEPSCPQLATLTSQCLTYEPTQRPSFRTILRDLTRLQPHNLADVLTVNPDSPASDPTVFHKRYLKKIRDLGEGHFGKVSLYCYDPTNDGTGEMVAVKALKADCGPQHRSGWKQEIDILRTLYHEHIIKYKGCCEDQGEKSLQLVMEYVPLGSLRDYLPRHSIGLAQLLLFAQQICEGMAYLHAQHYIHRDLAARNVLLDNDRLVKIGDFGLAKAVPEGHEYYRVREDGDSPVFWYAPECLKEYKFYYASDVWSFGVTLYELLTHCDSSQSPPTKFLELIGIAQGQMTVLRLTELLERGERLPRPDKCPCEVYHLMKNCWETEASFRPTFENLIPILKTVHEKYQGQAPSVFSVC
Experimental: (§5) The JAK inhibitory activities of compounds of the present invention were measured.
(§6) The enzymes (JAK1, JAK2, JAK3 and Tyk2) were purchased from Carna Biosciences, Inc.
(§7) As the substrate for the enzymes (hereinafter referred to as the substrate), LANCE Ultra ULight-JAK-1 (Tyr1023) Peptide (manufactured by PerkinElmer Co., Ltd.) was used.
(§8) As the antibody for detecting phosphorylation of the substrate, LANCE Ultra Europium-anti-phospho tyrosine antibody (PT66) (manufactured by PerkinElmer Co., Ltd.) was used.
(§9) The compounds of the present invention, the enzymes (JAK1, JAK2, JAK3 and Tyk2), the substrate and ATP were used for the assays after diluted with the assay buffer.
(§10) The enzyme concentrations and the ATP concentrations in the respective enzyme (JAK1, JAK2, JAK3 and Tyk2) assays were as follows.
Tyk2 enzyme assay; the enzyme concentration was 0.25 μg/mL and the ATP concentration was 20 μM.
(§11) The concentration of the substrate for the enzymes was 25 nM.
(§12) Dilute solutions of compounds and enzymes were dispensed into wells of a 384-well black plate (manufactured by Greiner bio-one) and preincubated at room temperature for 5 minutes.
(§13) Then, a dilute solution of the substrate and then a dilute solution of ATP were added, and the plate was incubated at room temperature for 30 minutes.
(§14) Then, a dilute solution of EDTA and then a dilute solution of PT66 were added, and the plate was incubated at room temperature for 1 hour.
(§15) The fluorescences were measured with ARVO-HTS, and from the plot of logarithm of a compound concentration and inhibitory activity, the IC50 value was calculated.

JAK2 = JAK2 (Homo sapiens (Human), UniProt O60674); assay: JAK2 enzyme assay; format: biochemical; conditions: enzyme 0.013 μg/mL, ATP 10 μM
JAK2, sequence (O60674 whole entry): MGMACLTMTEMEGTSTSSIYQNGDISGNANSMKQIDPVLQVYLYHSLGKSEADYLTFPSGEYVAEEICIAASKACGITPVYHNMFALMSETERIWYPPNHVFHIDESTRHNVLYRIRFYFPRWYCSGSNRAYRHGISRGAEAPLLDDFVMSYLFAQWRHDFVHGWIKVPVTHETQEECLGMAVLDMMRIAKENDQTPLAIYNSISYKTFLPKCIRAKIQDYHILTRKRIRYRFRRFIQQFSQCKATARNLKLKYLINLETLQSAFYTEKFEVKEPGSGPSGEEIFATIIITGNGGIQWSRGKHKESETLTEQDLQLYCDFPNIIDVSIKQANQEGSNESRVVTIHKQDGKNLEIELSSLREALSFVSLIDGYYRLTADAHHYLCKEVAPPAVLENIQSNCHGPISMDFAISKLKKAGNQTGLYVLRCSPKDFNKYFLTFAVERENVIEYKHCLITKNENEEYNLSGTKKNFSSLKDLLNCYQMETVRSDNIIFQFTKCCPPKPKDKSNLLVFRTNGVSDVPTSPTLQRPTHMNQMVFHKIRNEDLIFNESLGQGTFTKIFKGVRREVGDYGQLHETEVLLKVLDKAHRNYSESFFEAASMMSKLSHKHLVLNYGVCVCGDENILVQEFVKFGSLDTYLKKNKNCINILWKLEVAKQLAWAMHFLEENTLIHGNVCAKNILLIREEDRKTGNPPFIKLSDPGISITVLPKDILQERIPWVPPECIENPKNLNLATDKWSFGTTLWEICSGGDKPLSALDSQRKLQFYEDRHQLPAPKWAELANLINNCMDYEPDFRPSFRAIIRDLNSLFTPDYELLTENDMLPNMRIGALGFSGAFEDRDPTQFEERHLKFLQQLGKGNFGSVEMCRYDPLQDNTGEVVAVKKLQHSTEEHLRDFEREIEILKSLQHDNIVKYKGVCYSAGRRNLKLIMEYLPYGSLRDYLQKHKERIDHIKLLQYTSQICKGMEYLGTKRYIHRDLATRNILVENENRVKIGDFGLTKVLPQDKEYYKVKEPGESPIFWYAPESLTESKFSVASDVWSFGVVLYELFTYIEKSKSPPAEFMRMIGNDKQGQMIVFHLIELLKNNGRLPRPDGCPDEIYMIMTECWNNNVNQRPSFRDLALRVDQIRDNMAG
Experimental: as §5, §6, §7, §8, §9, §10
JAK2 enzyme assay; the enzyme concentration was 0.013 μg/mL, and the ATP concentration was 10 μM.
as §11, §12, §13, §14, §15

JAK3 = JAK3 (Homo sapiens (Human), UniProt P52333); assay: JAK3 enzyme assay; format: biochemical; conditions: enzyme 0.020 μg/mL, ATP 3 μM
JAK3, sequence (P52333 whole entry): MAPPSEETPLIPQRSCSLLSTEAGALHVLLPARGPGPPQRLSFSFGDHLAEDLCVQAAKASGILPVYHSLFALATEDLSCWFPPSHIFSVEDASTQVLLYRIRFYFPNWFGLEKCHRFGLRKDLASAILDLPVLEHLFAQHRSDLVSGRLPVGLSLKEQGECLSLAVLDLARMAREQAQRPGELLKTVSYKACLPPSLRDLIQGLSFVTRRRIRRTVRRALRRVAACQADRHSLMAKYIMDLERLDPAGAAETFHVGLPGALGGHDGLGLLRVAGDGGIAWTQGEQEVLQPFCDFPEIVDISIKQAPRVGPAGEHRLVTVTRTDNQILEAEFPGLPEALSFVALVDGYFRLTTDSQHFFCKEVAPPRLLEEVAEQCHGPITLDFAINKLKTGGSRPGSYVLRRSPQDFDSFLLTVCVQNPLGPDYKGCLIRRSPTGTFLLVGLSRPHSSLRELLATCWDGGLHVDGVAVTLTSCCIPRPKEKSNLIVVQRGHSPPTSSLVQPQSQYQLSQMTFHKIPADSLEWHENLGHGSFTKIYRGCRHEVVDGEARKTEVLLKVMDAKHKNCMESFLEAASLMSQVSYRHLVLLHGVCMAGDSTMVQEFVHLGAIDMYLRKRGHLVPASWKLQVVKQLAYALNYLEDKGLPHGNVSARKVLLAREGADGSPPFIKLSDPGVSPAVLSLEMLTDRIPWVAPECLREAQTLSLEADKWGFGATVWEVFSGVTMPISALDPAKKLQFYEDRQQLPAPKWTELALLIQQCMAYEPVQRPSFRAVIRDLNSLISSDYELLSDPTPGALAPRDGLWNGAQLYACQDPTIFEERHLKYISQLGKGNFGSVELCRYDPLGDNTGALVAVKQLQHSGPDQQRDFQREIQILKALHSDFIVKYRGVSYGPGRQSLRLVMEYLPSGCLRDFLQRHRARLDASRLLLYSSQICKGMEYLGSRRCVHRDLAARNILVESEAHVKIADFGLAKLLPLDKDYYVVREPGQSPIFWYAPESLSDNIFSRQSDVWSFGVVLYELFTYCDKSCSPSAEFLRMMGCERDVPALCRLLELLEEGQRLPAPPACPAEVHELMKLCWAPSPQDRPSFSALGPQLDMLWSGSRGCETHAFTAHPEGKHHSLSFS
Experimental: as §5, §6, §7, §8, §9, §10
JAK3 enzyme assay; the enzyme concentration was 0.020 μg/mL, and the ATP concentration was 3 μM.
as §11, §12, §13, §14, §15

JAK1 = JAK1 (Homo sapiens (Human), UniProt P23458); assay: JAK1 enzyme assay; format: biochemical; conditions: enzyme 0.5 μg/mL, ATP 70 μM
JAK1, sequence (P23458 whole entry): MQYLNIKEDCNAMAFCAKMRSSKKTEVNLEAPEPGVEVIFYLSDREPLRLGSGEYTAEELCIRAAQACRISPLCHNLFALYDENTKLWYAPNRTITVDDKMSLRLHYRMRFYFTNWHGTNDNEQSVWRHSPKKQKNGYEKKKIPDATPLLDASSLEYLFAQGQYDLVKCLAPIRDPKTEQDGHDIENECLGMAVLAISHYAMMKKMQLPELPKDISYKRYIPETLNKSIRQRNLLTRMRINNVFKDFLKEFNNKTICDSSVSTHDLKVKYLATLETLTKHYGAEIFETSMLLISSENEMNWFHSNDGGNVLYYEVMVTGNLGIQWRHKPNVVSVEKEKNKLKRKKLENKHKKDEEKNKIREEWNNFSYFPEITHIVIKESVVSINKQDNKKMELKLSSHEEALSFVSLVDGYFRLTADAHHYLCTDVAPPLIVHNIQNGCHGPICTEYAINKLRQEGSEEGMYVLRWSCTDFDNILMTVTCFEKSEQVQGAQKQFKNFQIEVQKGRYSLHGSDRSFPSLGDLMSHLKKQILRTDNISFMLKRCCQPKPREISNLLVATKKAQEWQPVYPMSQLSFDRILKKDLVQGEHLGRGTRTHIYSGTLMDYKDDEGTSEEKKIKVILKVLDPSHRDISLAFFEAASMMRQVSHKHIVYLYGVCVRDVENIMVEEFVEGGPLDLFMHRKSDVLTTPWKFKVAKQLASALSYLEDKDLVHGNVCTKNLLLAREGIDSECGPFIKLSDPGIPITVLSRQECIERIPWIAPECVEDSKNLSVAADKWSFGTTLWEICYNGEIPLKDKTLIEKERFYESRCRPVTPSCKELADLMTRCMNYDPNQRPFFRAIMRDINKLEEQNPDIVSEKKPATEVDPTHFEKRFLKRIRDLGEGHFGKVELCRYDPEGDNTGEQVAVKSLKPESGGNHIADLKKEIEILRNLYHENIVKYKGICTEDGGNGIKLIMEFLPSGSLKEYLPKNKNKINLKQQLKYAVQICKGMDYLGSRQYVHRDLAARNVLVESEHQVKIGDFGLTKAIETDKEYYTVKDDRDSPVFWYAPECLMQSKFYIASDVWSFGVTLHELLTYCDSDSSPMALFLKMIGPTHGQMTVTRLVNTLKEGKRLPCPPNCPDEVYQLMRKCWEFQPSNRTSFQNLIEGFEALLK
Experimental: as §5, §6, §7, §8, §9, §10
JAK1 enzyme assay; the enzyme concentration was 0.5 μg/mL, and the ATP concentration was 70 μM.
as §11, §12, §13, §14, §15

[2] = system: cytokine signaling via JAK; assay: Signal assay in rat whole blood (STAT phosphorylation assay); format: cell-based; conditions: T-cell; female Lewis rat whole blood, rat IL-6 100 ng/mL, phosphated STAT-1 in CD3 positive T cells
Experimental: 2. Signal Assay in Rat Whole Blood
The inhibitory activities of the compounds of the present invention obtained in Synthetic Examples 1 and 2 against cytokine signaling via JAK were measured by STAT phosphorylation assay using rat whole blood.
Female Lewis rats were purchased from CHARLES RIVER LABORATORIES JAPAN, INC.
Rat IL-6 was purchased from PeproTech.
Each compound was used at three consecutive concentrations of 1 μM, 0.1 μM and 0.01 μM, or 10 μM, 1 μM and 0.1 μM.
The concentration of rat IL-6 was 100 ng/mL.
The concentration of FITC-CD3 was 1 μg/mL.
as §1, with “The” for “Human”, “15” for “30”, “FITC-CD3 at 37° C. for 15 minutes, incubated with rat” for “human”
as §2
as §3, with “Pharmingen Stain Buffer and 10 μL” for “Pharmingen Stain Buffer, 10 μL”, “Phosflow STAT-1 at room” for “Phosflow STAT-1 and 5 μL of FITC-hCD3 at room”
as §4

SMILES	IC50 [1] [nM]	IC50 (Tyk2) [nM]	IC50 (JAK2) [nM]	IC50 (JAK3) [nM]	IC50 (JAK1) [nM]	IC50 [2] [nM]
O=c1ccn(C2CCCCC2)c2c1cnc1[nH]ccc12 [Compound E, reference compound]	1300	–	–	–	–	–
N#CC[C@@H](NC[C@H]1CC[C@H](n2ccc(=O)c3cnc4[nH]ccc4c32)CC1)C(F)(F)F [Synthetic Example 3, (R)-4,4,4-Trifluoro-3-({[trans-4-(4-oxo-4,7-dihydro-1H-pyrrolo[2,3-h][1,6]naphthyridin-1-yl)cyclohexyl]methyl}amino)butanenitrile]	440	18	5.1	10	1.7	–
O=c1[nH]c(=O)n(C2CCC(CNCC(F)(F)F)CC2)c2c1cnc1[nH]ccc12 (stereo not shown) [A]	–	–	–	–	–	2400
N#CCCN(CCC#N)CC1CCC(n2c(=O)[nH]c(=O)c3cnc4[nH]ccc4c32)CC1 (stereo not shown) [Compound B]	–	–	–	–	–	1300
N#CC[C@@H](OC[C@H]1CC[C@H](n2ccc(=O)c3cnc4[nH]ccc4c32)CC1)C(F)(F)F [Synthetic Example 7, (R)-4,4,4-Trifluoro-3-{[trans-4-(4-oxo-4,7-dihydro-1H-pyrrolo[2,3-h][1,6]naphthyridin-1-yl)cyclohexyl]methoxy}butanenitrile]	150	11	2	5.1	0.74	–
O=C1CCN(C2CCC(CO)CC2)c2c1cnc1[nH]ccc21 (stereo not shown) [Compound F, reference compound]	5900	–	–	–	–	–
O=c1[nH]c(=O)n([C@H]2CC[C@H](COCCC(F)(F)F)CC2)c2c1cnc1[nH]ccc12 [Synthetic Example 2, 1-{trans-4-[(3,3,3-Trifluoropropoxy)methyl]cyclohexyl}-1H-pyrrolo[3′,2′:5,6]pyrido[4,3-d]pyrimidine-2,4(3H,7H)-dione]	–	26	1.5	2.9	0.35	270
O=c1ccn([C@H]2CC[C@H](COCC(F)(F)F)CC2)c2c1cnc1[nH]ccc12 [Synthetic Example 5, 1-{trans-4-[(2,2,2-Trifluoroethoxy)methyl]cyclohexyl}-1H-pyrrolo[2,3-h][1,6]naphthyridin-4(7H)-one]	170	10	–	2.7	0.59	–
Cc1nc(CN2CCC(n3ccc(=O)c4cnc5[nH]ccc5c43)CC2)cs1 [Compound J, reference compound]	7600	–	–	–	–	–
N#CC[C@@H](NC[C@H]1CC[C@H](n2c(=O)[nH]c(=O)c3cnc4[nH]ccc4c32)CC1)C(F)(F)F [Synthetic Example 1, (R)-3-({[trans-4-(2,4-Dioxo-2,3,4,7-tetrahydro-1H-pyrrolo[3′,2′:5,6]pyrido[4,3-d]pyrimidin-1-yl)cyclohexyl]methyl}amino)-4,4,4-trifluorobutanenitrile]	–	22	4.6	15	0.99	390
O=c1ccn([C@H]2CC[C@H](COCCC(F)(F)F)CC2)c2c1cnc1[nH]ccc12 [Synthetic Example 6, 1-{trans-4-[(3,3,3-Trifluoropropoxy)methyl]cyclohexyl}-1H-pyrrolo[2,3-h][1,6]naphthyridin-4(7H)-one]	130	19	1.6	2.5	0.68	–
COC1CCC(n2ccc(=O)c3cnc4[nH]ccc4c32)CC1 (stereo not shown) [Compound G, reference compound]	6500	–	–	–	–	–
Cc1cnn(C[C@H]2CC[C@H](n3ccc(=O)c4cnc5[nH]ccc5c43)CC2)c1 [Synthetic Example 4, 1-{trans-4-[(4-Methyl-1H-pyrazol-1-yl)methyl]cyclohexyl}-1H-pyrrolo[2,3-h][1,6]naphthyridin-4(7H)-one]	300	39	1.9	7.1	0.41	–
